# Results as given in the Kinase Knowledgebase extract (Sharma et al. 2016).
# pIC50: −log10 of the molar value.
# Tests used:
# PIK3CD (Human) [1] = molecular target: PIK3CD (Human) (UniProt O00329); assay: Assessment of PIK3CD Kinase Activity
# PIK3CB (Human) = PIK3CB (Human) (UniProt P42338); assay: Assessment of PIK3CB Kinase Activity
# PIK3CD (Human) [2] = molecular target: PIK3CD (Human) (UniProt O00329); assay: Assessment of PIK3CD Kinase Activity in RAJI Cells
# PIK3CG (human) = PIK3CG (human) (UniProt P48736); assay: Assessment of PIK3CG Kinase Activity
# Chain of PIK3CG (human) (P48736 whole entry, looked up): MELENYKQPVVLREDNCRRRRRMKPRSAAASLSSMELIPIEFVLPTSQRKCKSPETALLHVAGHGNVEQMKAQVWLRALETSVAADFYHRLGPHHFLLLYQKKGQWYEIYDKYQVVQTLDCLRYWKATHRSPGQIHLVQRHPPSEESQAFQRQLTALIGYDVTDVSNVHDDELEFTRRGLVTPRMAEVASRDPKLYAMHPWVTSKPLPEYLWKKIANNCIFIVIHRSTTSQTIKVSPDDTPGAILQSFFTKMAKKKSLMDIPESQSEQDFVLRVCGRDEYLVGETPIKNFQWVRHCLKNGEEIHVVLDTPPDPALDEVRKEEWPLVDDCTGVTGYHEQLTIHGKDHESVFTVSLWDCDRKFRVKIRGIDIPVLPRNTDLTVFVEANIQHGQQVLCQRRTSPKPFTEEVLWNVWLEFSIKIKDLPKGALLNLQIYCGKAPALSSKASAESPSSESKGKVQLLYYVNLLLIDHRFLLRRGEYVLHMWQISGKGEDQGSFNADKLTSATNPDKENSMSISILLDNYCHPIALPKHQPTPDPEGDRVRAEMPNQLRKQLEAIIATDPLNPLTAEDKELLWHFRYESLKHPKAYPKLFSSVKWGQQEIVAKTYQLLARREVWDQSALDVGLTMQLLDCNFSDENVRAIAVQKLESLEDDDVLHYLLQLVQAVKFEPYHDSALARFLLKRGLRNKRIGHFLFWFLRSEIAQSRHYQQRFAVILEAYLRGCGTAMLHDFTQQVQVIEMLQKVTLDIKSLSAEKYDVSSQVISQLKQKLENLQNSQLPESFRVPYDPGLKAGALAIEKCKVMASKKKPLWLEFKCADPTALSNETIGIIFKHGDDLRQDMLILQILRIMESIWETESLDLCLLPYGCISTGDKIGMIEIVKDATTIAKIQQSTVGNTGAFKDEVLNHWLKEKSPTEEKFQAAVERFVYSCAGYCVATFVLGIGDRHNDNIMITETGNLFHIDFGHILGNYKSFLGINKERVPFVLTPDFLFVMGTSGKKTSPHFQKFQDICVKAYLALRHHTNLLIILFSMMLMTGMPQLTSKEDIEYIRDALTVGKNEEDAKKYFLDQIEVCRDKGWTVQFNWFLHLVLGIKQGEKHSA
# PIK3CA (human) = PIK3CA (human) (UniProt P42336); assay: Assessment of PIK3CA Kinase Activity
# Chain of PIK3CA (human) (P42336 whole entry, looked up): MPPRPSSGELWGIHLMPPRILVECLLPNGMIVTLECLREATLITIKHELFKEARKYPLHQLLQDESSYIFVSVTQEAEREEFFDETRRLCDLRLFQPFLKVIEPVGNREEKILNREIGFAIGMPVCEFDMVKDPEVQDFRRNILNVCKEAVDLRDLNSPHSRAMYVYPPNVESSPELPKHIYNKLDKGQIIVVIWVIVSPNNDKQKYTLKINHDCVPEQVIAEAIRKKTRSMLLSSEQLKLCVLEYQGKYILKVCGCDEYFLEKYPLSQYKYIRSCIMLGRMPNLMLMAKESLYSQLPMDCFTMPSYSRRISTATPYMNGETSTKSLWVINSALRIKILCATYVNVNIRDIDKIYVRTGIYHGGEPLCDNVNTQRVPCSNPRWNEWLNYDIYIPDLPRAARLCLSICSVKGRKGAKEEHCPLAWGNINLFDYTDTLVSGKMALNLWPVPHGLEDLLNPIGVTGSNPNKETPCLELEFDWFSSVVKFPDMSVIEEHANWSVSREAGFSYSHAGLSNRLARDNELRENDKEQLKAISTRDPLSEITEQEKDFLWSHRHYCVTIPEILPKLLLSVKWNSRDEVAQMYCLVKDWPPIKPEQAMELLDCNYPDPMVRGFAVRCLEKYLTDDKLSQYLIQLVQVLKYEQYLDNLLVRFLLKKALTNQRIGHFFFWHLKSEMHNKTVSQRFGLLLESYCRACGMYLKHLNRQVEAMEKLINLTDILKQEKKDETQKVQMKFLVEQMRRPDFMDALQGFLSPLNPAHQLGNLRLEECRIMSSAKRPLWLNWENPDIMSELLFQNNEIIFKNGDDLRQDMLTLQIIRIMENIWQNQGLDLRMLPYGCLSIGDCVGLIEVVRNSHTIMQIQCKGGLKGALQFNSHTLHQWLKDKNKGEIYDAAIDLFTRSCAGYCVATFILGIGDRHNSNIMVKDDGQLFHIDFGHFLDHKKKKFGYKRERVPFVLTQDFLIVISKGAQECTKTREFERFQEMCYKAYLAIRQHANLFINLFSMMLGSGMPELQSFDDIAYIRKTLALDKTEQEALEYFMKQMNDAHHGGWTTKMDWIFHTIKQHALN
# Chain of PIK3CB (Human) (P42338 whole entry, looked up): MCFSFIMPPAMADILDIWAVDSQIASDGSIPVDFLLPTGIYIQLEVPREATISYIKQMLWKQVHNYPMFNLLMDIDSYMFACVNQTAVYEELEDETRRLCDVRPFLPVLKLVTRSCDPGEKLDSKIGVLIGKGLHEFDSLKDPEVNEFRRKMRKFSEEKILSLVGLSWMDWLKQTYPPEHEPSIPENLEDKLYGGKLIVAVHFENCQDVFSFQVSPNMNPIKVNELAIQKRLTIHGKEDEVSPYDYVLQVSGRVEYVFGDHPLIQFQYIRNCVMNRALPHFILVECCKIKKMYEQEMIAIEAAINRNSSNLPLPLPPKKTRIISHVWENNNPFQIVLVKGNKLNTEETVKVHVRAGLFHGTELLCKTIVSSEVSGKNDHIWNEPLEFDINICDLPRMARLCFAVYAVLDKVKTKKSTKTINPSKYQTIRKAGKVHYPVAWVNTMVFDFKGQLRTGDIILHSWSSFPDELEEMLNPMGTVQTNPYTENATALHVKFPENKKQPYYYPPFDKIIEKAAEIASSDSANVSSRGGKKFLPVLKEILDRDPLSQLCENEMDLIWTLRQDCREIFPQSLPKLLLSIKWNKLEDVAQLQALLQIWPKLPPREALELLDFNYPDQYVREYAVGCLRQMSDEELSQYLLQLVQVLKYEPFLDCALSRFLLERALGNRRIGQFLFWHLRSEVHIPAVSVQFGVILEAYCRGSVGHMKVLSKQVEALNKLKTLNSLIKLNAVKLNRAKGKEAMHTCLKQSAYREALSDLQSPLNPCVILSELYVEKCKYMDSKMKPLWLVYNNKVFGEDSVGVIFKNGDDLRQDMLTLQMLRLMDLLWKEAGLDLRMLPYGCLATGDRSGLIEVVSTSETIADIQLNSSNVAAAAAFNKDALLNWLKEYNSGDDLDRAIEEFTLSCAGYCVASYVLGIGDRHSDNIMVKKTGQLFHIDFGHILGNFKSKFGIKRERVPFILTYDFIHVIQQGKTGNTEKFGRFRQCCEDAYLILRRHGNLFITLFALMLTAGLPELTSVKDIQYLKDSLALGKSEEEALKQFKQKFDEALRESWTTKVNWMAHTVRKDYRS
# Chain of PIK3CD (Human) (O00329 whole entry, looked up): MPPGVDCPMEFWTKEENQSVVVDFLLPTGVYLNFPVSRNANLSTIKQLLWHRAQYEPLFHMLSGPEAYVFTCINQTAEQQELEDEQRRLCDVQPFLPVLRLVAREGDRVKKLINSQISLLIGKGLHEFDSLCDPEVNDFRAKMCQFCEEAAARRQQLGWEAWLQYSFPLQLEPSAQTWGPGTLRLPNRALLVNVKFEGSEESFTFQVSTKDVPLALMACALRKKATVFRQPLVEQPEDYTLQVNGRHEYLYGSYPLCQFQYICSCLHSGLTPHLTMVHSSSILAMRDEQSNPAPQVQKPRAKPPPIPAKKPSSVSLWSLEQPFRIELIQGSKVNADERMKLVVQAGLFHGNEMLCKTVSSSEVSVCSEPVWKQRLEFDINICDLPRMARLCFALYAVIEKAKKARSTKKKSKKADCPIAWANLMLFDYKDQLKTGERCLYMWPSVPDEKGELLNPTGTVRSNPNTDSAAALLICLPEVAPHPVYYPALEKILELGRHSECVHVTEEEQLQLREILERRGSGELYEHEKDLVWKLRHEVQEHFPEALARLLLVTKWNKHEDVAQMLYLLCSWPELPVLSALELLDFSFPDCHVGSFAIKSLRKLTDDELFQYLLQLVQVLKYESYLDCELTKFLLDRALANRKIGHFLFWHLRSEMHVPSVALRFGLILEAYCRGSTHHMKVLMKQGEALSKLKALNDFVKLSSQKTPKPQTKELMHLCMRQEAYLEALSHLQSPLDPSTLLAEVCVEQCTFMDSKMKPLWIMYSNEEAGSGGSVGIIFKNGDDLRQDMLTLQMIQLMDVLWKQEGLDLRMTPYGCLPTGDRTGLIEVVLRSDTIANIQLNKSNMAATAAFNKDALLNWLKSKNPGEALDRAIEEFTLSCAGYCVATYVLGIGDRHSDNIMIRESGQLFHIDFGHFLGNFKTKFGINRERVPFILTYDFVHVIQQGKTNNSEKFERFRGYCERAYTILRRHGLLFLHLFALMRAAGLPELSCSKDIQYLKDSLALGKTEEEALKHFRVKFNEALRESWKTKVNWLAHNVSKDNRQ
SMILES,pIC50 (PIK3CD (Human) [1]),pIC50 (PIK3CB (Human)),pIC50 (PIK3CD (Human) [2]),pIC50 (PIK3CG (human)),pIC50 (PIK3CA (human))
COC(=O)c1cccc(-n2c([C@H](C)Nc3nc(N)ncc3C#N)cc3cccc(Cl)c3c2=O)c1,6.00 to 7.00,< 5.00,> 7.00,,
C[C@H](Nc1nc(N)ncc1-c1cncc(S(C)(=O)=O)c1)c1cc2cccc(Cl)c2c(=O)n1-c1ccccc1,,,> 7.00,6.00 to 7.00,
COc1ncc(-c2cnc(N)nc2N[C@@H](C)c2cc3cccc(Cl)c3c(=O)n2-c2ccccc2)s1,> 7.00,,> 7.00,> 7.00,< 5.00
COc1cc(-n2c([C@H](C)Nc3nc(N)ncc3C#N)cc3cccc(Cl)c3c2=O)ccc1F,,,> 7.00,> 7.00,< 5.00
C[C@H](Nc1nc(N)ncc1-c1cccc(N(C)S(C)(=O)=O)c1)c1cc2cccc(Cl)c2c(=O)n1-c1ccccc1,6.00 to 7.00,,> 7.00,> 7.00,
C[C@H](Nc1nc(N)ncc1C#N)c1cc2cccc(Cl)c2c(=O)n1-c1ccc(F)c(F)c1,,,> 7.00,> 7.00,< 5.00
COc1ncc(-c2cccc3cc([C@H](C)Nc4ncnc(N)c4C#N)n(-c4ccon4)c(=O)c23)cn1,6.00 to 7.00,< 5.00,> 7.00,,
C[C@H](Nc1nc(N)ncc1-c1ccc(S(C)(=O)=O)nc1)c1cc2cccc(Cl)c2c(=O)n1-c1ccccc1,,,> 7.00,6.00 to 7.00,< 5.00
COc1ncc(-c2cccc3cc([C@H](C)Nc4nc(N)ncc4-c4cncs4)n(-c4ccccc4)c(=O)c23)cn1,> 7.00,,> 7.00,> 7.00,
C[C@H](Nc1nc(N)ncc1C#N)c1cc2cccc(Cl)c2c(=O)n1C1CC1,,,> 7.00,> 7.00,< 5.00
COc1cccc(-n2c([C@H](C)Nc3nc(N)ncc3C#N)cc3cccc(Cl)c3c2=O)c1,6.00 to 7.00,,> 7.00,> 7.00,< 5.00
C[C@H](Nc1nc(N)ncc1C#N)c1cc2cccc(-c3cncc(NS(C)(=O)=O)c3)c2c(=O)n1-c1ccccc1,,,> 7.00,> 7.00,
CCOc1nc(-c2cnc(N)nc2N[C@@H](C)c2cc3cccc(-c4cnc(OC)nc4)c3c(=O)n2-c2ccccc2)cs1,> 7.00,,> 7.00,6.00 to 7.00,
C[C@H](Nc1nc(N)ncc1-c1cccc(NS(C)(=O)=O)c1)c1cc2cccc(Cl)c2c(=O)n1-c1ccccc1,> 7.00,,> 7.00,> 7.00,
C[C@H](Nc1nc(N)ncc1-c1cccc(S(=O)(=O)C2CC2)c1)c1cc2cccc(Cl)c2c(=O)n1-c1ccccc1,> 7.00,,> 7.00,> 7.00,
N#Cc1cnc(N)nc1NCc1cc2cccc(Cl)c2c(=O)n1-c1ccccc1,> 7.00,,> 7.00,6.00 to 7.00,
C[C@H](Nc1nc(N)ncc1-c1cccc(S(N)(=O)=O)c1)c1cc2cccc(Cl)c2c(=O)n1-c1ccccc1,6.00 to 7.00,< 5.00,> 7.00,> 7.00,
C[C@H](Nc1nc(N)ncc1-c1cnc(S(C)(=O)=O)s1)c1cc2cccc(Cl)c2c(=O)n1-c1ccccc1,> 7.00,,> 7.00,> 7.00,< 5.00
CNS(=O)(=O)c1cccc(-c2cnc(N)nc2N[C@@H](C)c2cc3cccc(Cl)c3c(=O)n2-c2ccccc2)c1,6.00 to 7.00,6.00 to 7.00,> 7.00,> 7.00,
COc1ccc(-c2cnc(N)nc2N[C@@H](C)c2cc3cccc(Cl)c3c(=O)n2-c2ccccc2)cn1,6.00 to 7.00,< 5.00,> 7.00,> 7.00,

SMILES,pIC50 (PIK3CD (Human) [1]),pIC50 (PIK3CB (Human)),pIC50 (PIK3CD (Human) [2]),pIC50 (PIK3CG (human)),pIC50 (PIK3CA (human))
COc1cc(-c2cccc3cc([C@H](C)Nc4nc(N)ncc4C#N)n(-c4ccccc4)c(=O)c23)ccn1,> 7.00,,> 7.00,> 7.00,6.00 to 7.00
COc1ncc(-c2cccc3cc([C@H](C)Nc4nc(N)ncc4C#N)n(C(C)C)c(=O)c23)cn1,> 7.00,< 5.00,> 7.00,6.00 to 7.00,
C[C@H](Nc1ncncc1-c1cccc(S(=O)(=O)N(C)C)c1)c1cc2cccc(Cl)c2c(=O)n1-c1ccccc1,6.00 to 7.00,< 5.00,> 7.00,6.00 to 7.00,
C[C@H](Nc1nc(N)ncc1-c1cccc(S(C)(=O)=O)c1)c1cc2cccc(C(F)(F)F)c2c(=O)n1-c1ccccc1,6.00 to 7.00,,> 7.00,6.00 to 7.00,
C[C@H](Nc1nc(N)ncc1C#N)c1cc2cccc(-c3ccc(=O)n(C)c3)c2c(=O)n1-c1ccon1,,,> 7.00,6.00 to 7.00,
C[C@H](Nc1nc(N)ncc1-c1cccc(S(C)(=O)=O)c1)c1cc2cccc(Cl)c2c(=O)n1-c1ccccc1,6.00 to 7.00,,> 7.00,> 7.00,
Cc1ccc(NS(C)(=O)=O)cc1-c1cnc(N)nc1N[C@@H](C)c1cc2cccc(Cl)c2c(=O)n1-c1ccccc1,> 7.00,,> 7.00,> 7.00,< 5.00
C[C@H](Nc1nc(N)ncc1C#N)c1cc2cccc(-c3ccnc(O)c3)c2c(=O)n1-c1ccccc1,> 7.00,< 5.00,,> 7.00,< 5.00
C[C@H](Nc1nc(N)ncc1C#N)c1cc2cccc(-c3cncc(N(C)C)c3)c2c(=O)n1-c1ccccc1,> 7.00,< 5.00,,> 7.00,6.00 to 7.00
C[C@H](Nc1nc(N)ncc1C#N)c1cc2cccc(-c3cccc(O)n3)c2c(=O)n1-c1ccccc1,> 7.00,< 5.00,,6.00 to 7.00,< 5.00
CC(C)n1c([C@H](C)Nc2ncnc(N)c2C#N)cc2cccc(Cl)c2c1=O,> 7.00,,> 7.00,6.00 to 7.00,
COc1cc(-c2cccc3cc([C@@H](C)Nc4nc(N)ncc4C#N)n(-c4ccccc4)c(=O)c23)ccn1,> 7.00,< 5.00,,6.00 to 7.00,< 5.00
COc1cncc(-c2cccc3cc([C@H](C)Nc4nc(N)ncc4C#N)n(-c4ccccc4)c(=O)c23)n1,> 7.00,< 5.00,,6.00 to 7.00,< 5.00
C[C@H](Nc1nc(N)ncc1C(=O)C1CC1)c1cc2cccc(Cl)c2c(=O)n1-c1ccccc1,,< 5.00,> 7.00,,
C[C@H](Nc1nc(N)ncc1C#N)c1cc2cccc(Cl)c2c(=O)n1-c1c(F)cccc1F,,,> 7.00,6.00 to 7.00,< 5.00
C[C@H](Nc1nc(N)ncc1C#N)c1cc2cccc(C#CCCC(=O)N3CCOCC3)c2c(=O)n1-c1ccccc1,> 7.00,6.00 to 7.00,,> 7.00,6.00 to 7.00
C[C@H](Nc1nc(N)ncc1[N+](=O)[O-])c1cc2cccc(Cl)c2c(=O)n1-c1ccccc1,> 7.00,6.00 to 7.00,,> 7.00,< 5.00
CSc1ncc(-c2cnc(N)nc2N[C@@H](C)c2cc3cccc(Cl)c3c(=O)n2-c2ccccc2)s1,> 7.00,6.00 to 7.00,,> 7.00,6.00 to 7.00
COc1cc(-c2cccc3cc([C@H](C)Nc4nc(N)ncc4C(=O)N(C)OC)n(-c4ccccc4)c(=O)c23)ccn1,6.00 to 7.00,< 5.00,,> 7.00,< 5.00
COc1cncc(-c2cccc3cc([C@H](C)Nc4nc(N)ncc4C#N)n(C4CC4)c(=O)c23)c1,> 7.00,6.00 to 7.00,,> 7.00,6.00 to 7.00
